The term pEC50 denotes the negative decadic logarithm of the EC50, by convention in mol/L. As usually defined, the pIC50 is the IC50 on a negative log10 scale, so that one unit is a factor of ten. Low values mean a high IC50, high ones a low IC50.

pEC50, pIC50: −log10 of the molar value. The source made the active and inactive calls.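 The calls were made as follows: active = compounds giving half or more protection of infected cells from virus-caused growth loss, again on retest; inactive = the rest.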 *1 amine or outer side, *2 acyl side, *3 side chain or, on linkers, in order; H or OH if unused. Where a SMILES comes first, the peptide text is derived from it. [ ]: non-standard residue; d: D form. The star is where a group is joined. X3 = CC(=O)N(C)SCC(N[*:1])C(=O)[*:2]; Cbz = O=C(OCc1ccccc1)*; Bn = c1ccc(C*)cc1

This assay concerns CEM cells HIV-1 protection, formazan growth assay. As to the kind of experiment: NCI AIDS Antiviral Assay. Particulars: for pIC50: measured here: growth of uninfected CEM cells. In short, it runs like this: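 Category rules: moderately active means at least 50% protection on retest, and confirmed active means 100% protection reproducibly. The underlying data came from a formazan growth assay in HIV-1-infected CEM cells.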

As for `O=C1c2cc3c(cc2CC1Br)CCC3` (centres undefined), the pEC50 was less than 4.70 and the negative-log IC50 (pIC50) was 6.42.
Consider `C[C@H](N[C@H]1CCC[C@]1(O)C#Cc1ccc2c(c1)OCO2)c1ccccc1`, for which the pEC50 is less than 4.30 and the pIC50 was 4.54.
Regarding `CC(C)(C)C1(c2ccc(C3(c4ccccc4)Oc4ccccc4S3)[nH]2)Oc2ccccc2S1` (centres undefined), the result was inactive.
In the case of `c1ccc(-c2cc3ccc4cccnc4c3o2)cc1`, the pEC50 was less than 3.97 and the pIC50 is 4.25.
For the molecule `O=C(O)/N=N\C(=O)O`, the pEC50 was less than 3.82 and the negative logarithm of the IC50 (pIC50) is less than 3.82.
On to `CN1CCN2c3ccccc3CC(C#N)(C#N)C2C1` (centres undefined), for which the outcome was inactive.
With `Fc1cccc(F)c1C1SCc2nc3cc4ccccc4cc3n21` (centres undefined), the pEC50 was less than 3.70 and the negative-log IC50 (pIC50) was 4.61.
Turning to `C=C1[C@H](O)[C@@]2(C(=O)N1OC)/C(=C/CC)C=CC(=O)C2O` (some centres undefined), the pEC50 was less than 3.05 and the pIC50 is 3.48.
For the molecule `O=C1/C(=C\c2ccccc2)CN(C(=O)CCN2CCCCC2)C/C1=C/c1ccccc1`, the pEC50 was less than 3.82 and the pIC50 is 6.10.
As to `CCOP(=S)(OCC)Oc1ccc(Sc2ccc(OP(=S)(OCC)OCC)cc2)cc1`, the pEC50 was less than 3.70 and the pIC50 is 4.51.
Turning to `CSc1nc(NC2OC(COC(C)=O)C(OC(C)=O)C(OC(C)=O)C2OC(C)=O)c(N=C(C)C(C)=O)c(=O)[nH]1` (centres undefined), the result was inactive.
With `COc1ccc(C(N)=O)cc1N=NN(C)C`, the pEC50 is less than 2.95 and the pIC50 is 3.30.
The matching figures for `O=C1Cc2ccccc2N1C1c2ccccc2C=Cc2ccccc21`: less than 3.70 and 4.67.
Regarding `CCOC(=O)C(=C(SC)SC)c1nn2c(=O)cc(C)nc2s1`, the pEC50 was less than 3.70 and the pIC50 was 4.75.
The matching figures for `Cc1cn2c(n1)sc1ccccc12`: less than 3.70 and less than 3.70.
Regarding `O=c1n(Cl)c(=O)n(Cl)c(=O)n1Cl`, the outcome was inactive.
As to `C(#C[PH+](c1ccccc1)c1ccccc1)c1ccccc1.C(#C[PH+](c1ccccc1)c1ccccc1)c1ccccc1.C(#C[PH+](c1ccccc1)c1ccccc1)c1ccccc1.[C-]#[O+].[C-]#[O+].[C-]#[O+].[Cr]`, the pEC50 is less than 6.26 and the negative logarithm of the IC50 (pIC50) was less than 6.26.
On to `O=C(O)c1cc(=O)[nH]c(O)c1N=Nc1ccc(/C=C/c2ccc(N=Nc3c(C(=O)O)cc(=O)[nH]c3O)cc2S(=O)(=O)O)c(S(=O)(=O)O)c1`, for which the pEC50 was less than 3.70 and the negative-log IC50 (pIC50) is 3.99.
As for `N#C[C@@H](c1ccccn1)c1ncccc1[N+](=O)[O-]`, the pEC50 is less than 3.70 and the pIC50 was less than 3.70.
`CC(=O)c1ccc2c3ccccc3c3cccc4sc1c2c43`: the pEC50 is less than 4.65 and the negative-log IC50 (pIC50) is less than 4.65.
`COC1=CC(=O)C(O)=C(C[C@@]2(C)C3CCCC(C)(C)C3=CC[C@@H]2C)C1=O` (some centres undefined): the pEC50 is less than 3.44 and the negative-log IC50 (pIC50) was 4.71.
`C(=C(Sc1ccccc1)Sc1ccccc1)C(Sc1ccccc1)c1ccccc1` (centres undefined): the pEC50 is less than 3.70 and the negative logarithm of the IC50 (pIC50) is less than 3.70.
Consider `CC(C)(C)C1=CC(=C(P(=O)(O)O)P(=O)(O)O)C=C(C(C)(C)C)C1=O`, for which the pEC50 is less than 3.27 and the pIC50 is less than 3.27.
`CCCCC[C@H](O)[C@H](C)C=C1SCCCS1`: the pEC50 was less than 3.70 and the negative logarithm of the IC50 (pIC50) is 4.01.
For `CNC(=O)CN1CC(=O)N(C)C(=O)C1`, the pEC50 was less than 2.90 and the pIC50 is less than 2.90.
As for `CNS(=O)(=O)c1c(N)ncn1C`, the pEC50 was less than 2.96 and the pIC50 was less than 2.96.
In the case of `CNC(=O)CNC(=O)N(C[C@@H]1CCCN1C(=O)[C@H](CC(C)C)NC(=O)OC(C)(C)C)C(C)C`, the pEC50 is less than 3.70 and the negative-log IC50 (pIC50) was less than 3.70.
`Cc1nnc2c3c(-c4ccccc4)c(-c4ccccc4)oc3nc(N(C)C)n12`: the result was inactive.
In the case of `CCC1C(=O)OCc2c1cc1n(c2=O)C(CC)c2c-1nc1ccccc1c2Cl` (centres undefined), the pEC50 was less than 5.00 and the negative-log IC50 (pIC50) is 5.33.
The matching figures for `CCCCCNc1nonc1N`: less than 3.70 and less than 3.70.
Regarding `O=c1c2cccnc2ncn1CCCN1CCOCC1`, the result was inactive.
In the case of `c1cc2nc(c1)CSCCCCCCCCSC2`, the pEC50 was less than 4.45 and the negative logarithm of the IC50 (pIC50) is less than 4.45.
Regarding `Cc1cn(C2CC(C/C=[N+](\[O-])CC3OC(n4cc(C)c(=O)[nH]c4=O)CC3O[Si](C)(C)C(C)(C)C)C(CO[Si](C)(C)C(C)(C)C)O2)c(=O)[nH]c1=O` (centres undefined), the pEC50 was less than 3.70 and the negative logarithm of the IC50 (pIC50) was 4.44.
On to `c1ccc2c(c1)[nH]c1cnc3c4cccnc4[nH]c3c12`, for which the pEC50 is less than 3.87 and the pIC50 is 4.90.
In the case of `COc1ccc(N(CN2C(=O)CCC2OC)C(C)=O)cc1` (centres undefined), the outcome was inactive.
For the molecule `O=[N+]([O-])c1ccc(-n2cccc2)cc1`, the pEC50 was less than 3.70 and the pIC50 is 4.64.
For `Cc1cc(=O)[nH]c2[nH][nH]c(=O)c12`, the result was inactive.
In the case of `Cc1ccc(N=C[N-]c2ccc(C)cc2)cc1.Cc1ccc(N=C[N-]c2ccc(C)cc2)cc1.O=C([O-])C(F)(F)F.O=C([O-])C(F)(F)F.[OH3+].[OH3+].[Rh+2].[Rh+2]`, the pEC50 was less than 4.85 and the pIC50 was less than 4.85.
Take `Cc1cc(C)nc(NC(=O)Nc2cc(Cl)ccc2C)c1`: the pEC50 is less than 3.70 and the pIC50 was less than 3.70.
In the case of `CN1N=CSC12C(=O)N(c1ccc(Cl)cc1)C(=O)N2c1ccc(Cl)cc1` (centres undefined), the result was inactive.
On to `C=CC(CCCCCCCC(=O)O)S(=O)(=O)O` (centres undefined), for which the pEC50 was less than 3.70 and the negative-log IC50 (pIC50) was less than 3.70.
As to `COC(=O)C[C@@H]1C(C)(C)[C@@H]2O[C@@]34C[C@@H]2C(=O)[C@]1(C)[C@H]3CC[C@@]1(C)[C@H](c2ccoc2)OC(=O)C[C@]14O`, the pEC50 was less than 3.70 and the negative logarithm of the IC50 (pIC50) was 3.92.
As for `Cc1nn(-c2ccccc2)c2nc(N3CCOCC3)nnc12`, the result was inactive.
`Oc1ccc2ccccc2c1C1=NNc2n[nH]c(=S)n2N1`: the pEC50 was less than 3.83 and the pIC50 was 4.72.
`Cc1ccc(/C=N\NC(=O)c2ccncc2)s1`: the pEC50 was less than 3.70 and the pIC50 was 3.93.
On to `O=C1c2cccc3cc([N+](=O)[O-])cc(c23)C(=O)N1Cc1cccnc1`, for which the outcome was inactive.
As to `CC(=O)N(C)SCC(NC(=O)C(Cc1ccccc1)NC(=O)OCc1ccccc1)C(=O)NC(Cc1ccccc1)C(=O)NC(Cc1c[nH]c2ccccc12)C(=O)NC(CCCCNC(=O)OCc1ccccc1)C(=O)NC(C(=O)NC(CSN(C)C(C)=O)C(=O)NC(C(N)=O)C(C)OCc1ccccc1)C(C)OCc1ccccc1` (centres undefined) (Cbz-F[X3]FWK(Cbz)T(Bn)[X3]T(Bn)-NH2; configuration not given here), the negative-log EC50 (pEC50) was 4.26 and the negative logarithm of the IC50 (pIC50) is 4.07.
With `CC(=O)Nc1c(S(=O)(=O)c2ccccc2)c(C)c(C)n1CCN(C)C`, the pEC50 is less than 3.70 and the negative logarithm of the IC50 (pIC50) is less than 3.70.
Regarding `COc1ccc(C(=O)c2ccc(OC)c(S(=O)(=O)n3ccnc3)c2)cc1S(=O)(=O)n1ccnc1`, the pEC50 is less than 4.45 and the pIC50 is 4.49.
On to `O=C(/N=C/c1c(O)c2ccccc2oc1=O)Nc1ccccc1`, for which the pEC50 was less than 4.77 and the pIC50 was less than 4.77.
For `COc1cccc2c(Nc3ccc(S(=O)(=O)N=C(N)N)cc3)c3ccc([N+](=O)[O-])cc3nc12`, the pEC50 was less than 3.70 and the negative logarithm of the IC50 (pIC50) is 4.96.
For the molecule `COC(=O)c1cc2c(cc1CC1Cc3cc4c(cc3C1)CCC4)CCC2`, the pEC50 is less than 3.70 and the pIC50 is less than 3.70.
With `CC(C)C(Sc1nc(-c2ccccc2)c(-c2ccccc2)[nH]1)C(=O)N/N=C/c1ccc([N+](=O)[O-])cc1` (centres undefined), the pEC50 was less than 4.84 and the pIC50 is less than 4.84.
Consider `CN(C)CC/C=C1\c2ccccc2CN(C)c2ccccc21`, for which the pEC50 was less than 3.70 and the negative-log IC50 (pIC50) was 4.48.
Turning to `CCC1Sc2cc(OC)cc3[nH]c(=S)n(c23)C1=O` (centres undefined), the negative logarithm of the EC50 (pEC50) was 3.90 and the pIC50 is 3.83.
On to `CC(C(=O)N1C(=O)N(C(=O)C(C)C(O)c2ccccc2)C2CCCCC21)C(O)c1ccccc1` (centres undefined), for which the pEC50 is less than 3.70 and the pIC50 was 3.92.
`O=Cc1ccc2c(c1)CC1(C2)Cc2ccc(C=O)cc2C1`: the pEC50 is less than 3.70 and the negative-log IC50 (pIC50) was 5.32.
Regarding `COc1ccc(Nc2c(C#N)c3n(c4ccccc24)c2ccccc2[n+]3C)cc1OC`, the pEC50 was less than 3.70 and the pIC50 was 5.51.
Turning to `CC(=O)N1CCOC12N=NC(C)(C)O2` (centres undefined), the pEC50 was less than 3.70 and the pIC50 is less than 3.70.
For the molecule `CCC(C)C(NC(=O)C(CCC(N)=O)NC(=O)C1CCCN1)C(=O)NC(C(=O)NC(CC(C)C)C(=O)O)C(C)O` (centres undefined) (H-PQITL-OH; configuration not given here), the result was inactive.
Consider `COC(=O)C1(O)CC(=O)CCC1c1ccccc1` (centres undefined), for which the pEC50 is less than 3.45 and the pIC50 was less than 3.45.
With `CC1(C)OCC(CO)(CO)CO1`, the pEC50 was less than 2.85 and the negative-log IC50 (pIC50) was less than 2.85.
For the molecule `CN1CC2=C(NC(=S)NC2c2ccc(Cl)cc2)/C(=C/c2ccc(Cl)cc2)C1` (centres undefined), the pEC50 is less than 3.70 and the pIC50 was 4.47.
Turning to `CO[C@H](C(=O)[C@@H](O)[C@@H](C)O)[C@@H]1Cc2cc3cc(OC4CC(OC5CC(O)C(O)C(C)O5)C(O)C(C)O4)c(C)c(O)c3c(O)c2C(=O)[C@H]1OC1CC(OC2CC(OC3CC(C)(O)C(O)C(C)O3)C(O)C(C)O2)C(O)C(C)O1` (some centres undefined), the pEC50 is less than 7.52 and the pIC50 was less than 7.52.
Consider `C(=C\C(SCc1ccccc1)SCc1ccccc1)/c1ccccc1`, for which the pEC50 was less than 3.70 and the negative-log IC50 (pIC50) was less than 3.70.
`CN(c1ccccc1)c1nc(=[N+](C)C)ss1`: the result was inactive.
Consider `NCCCNOCCCN`, for which the pEC50 is less than 3.70 and the pIC50 is less than 3.70.
For the molecule `COc1ccc(C[C@]23CCC(=O)N2CCc2cc(OC)c(O)cc23)cc1O`, the result was inactive.
Regarding `OCC1OC(n2cnc3c(Cl)nc(Nc4ccc(Cl)c(Cl)c4)nc32)CC1O` (centres undefined), the pEC50 is less than 3.70 and the negative-log IC50 (pIC50) is 5.43.
